According to patent US7374920B2, “Ginkgo biloba levopimaradiene synthase” (priority 2001, dated 2008):
Entries after “also recorded” stand apart in the source; their conditions may differ.

Legend:
[1] = biological target: T1, Levopimaradiene synthase (Ginkgo biloba, UniProt Q947C4); assay: levopimaradiene synthase activity towards geranyl diphosphate and farnesyl diphosphate; type: biochemical; details: E. coli expression, 200 μM substrate, overnight at 32° C., GC or GC/MS
T1 construct: thioredoxin (from pET32c(+)); made in house; host or cells: E. coli BL21(DE3), soluble fraction of the lysate
T1 sequence (Q947C4 60-873): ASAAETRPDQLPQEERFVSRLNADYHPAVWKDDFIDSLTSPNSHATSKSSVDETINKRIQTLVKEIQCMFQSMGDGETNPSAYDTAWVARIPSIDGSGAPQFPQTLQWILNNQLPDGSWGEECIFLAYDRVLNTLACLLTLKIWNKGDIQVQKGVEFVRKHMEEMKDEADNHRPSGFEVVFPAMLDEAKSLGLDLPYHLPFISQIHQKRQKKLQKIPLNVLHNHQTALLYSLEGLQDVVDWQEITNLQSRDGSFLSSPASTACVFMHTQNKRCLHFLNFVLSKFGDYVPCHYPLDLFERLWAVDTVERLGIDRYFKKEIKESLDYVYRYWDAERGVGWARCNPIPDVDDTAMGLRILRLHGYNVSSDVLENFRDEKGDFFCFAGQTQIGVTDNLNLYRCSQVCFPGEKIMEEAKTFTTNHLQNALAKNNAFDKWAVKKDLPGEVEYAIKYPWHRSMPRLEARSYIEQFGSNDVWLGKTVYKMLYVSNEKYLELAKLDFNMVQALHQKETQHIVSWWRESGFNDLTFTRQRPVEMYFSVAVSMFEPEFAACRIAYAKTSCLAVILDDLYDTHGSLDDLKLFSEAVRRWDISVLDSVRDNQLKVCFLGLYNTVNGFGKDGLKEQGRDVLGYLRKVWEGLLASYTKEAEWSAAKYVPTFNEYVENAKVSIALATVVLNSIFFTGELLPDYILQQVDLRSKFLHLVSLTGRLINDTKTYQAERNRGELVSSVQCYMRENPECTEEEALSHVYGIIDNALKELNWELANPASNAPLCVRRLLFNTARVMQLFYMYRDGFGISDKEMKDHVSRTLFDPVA
Method: Levopimaradiene synthase was also tested for activity towards 200 μM geranyl diphosphate and farnesyl diphosphate. Cell cultures were induced and lysed as noted above. The soluble fraction of the lysate was incubated overnight at 32° C. with 200 μM substrate in 30 mM HEPES, pH 7.2, 5 mM DTT, 5% glycerol, 2 mM MgCl2 and 500 μM MnCl2, and overlaid with hexane (1 mL).
(§1) All in vitro reactions were extracted 3× with hexane and dried over MgSO4. The reaction was further extracted twice with diethyl ether and dried over MgSO4. Thereafter, the crude lysate was suspended in 100 mM Tris, pH 8.0 containing 2.9 units/mg apyrase (a dephosphorylating agent) and 10 units/μL calf intestinal alkaline phosphatase, incubated at 30° C. for 3 hours, and extracted with diethyl ether as noted above (Croteau and Cane, 1985). The crude reaction mixtures were eluted over SiO2, concentrated, and analyzed by GC and GC/MS.
Gas chromatography spectra were obtained on a Hewlett Packard 6890 Series GC System equipped with an Rtx-5 capillary column (Restek, 30 m×0.25 mm i.d., 0.10 μm df). The following separation conditions and temperature program were employed: injector port 250° C., FID 250° C., split ratio 39:1, helium flow 20 cm/s (0.6 mL/min), 150° C. hold 5 min, increase to 250° C. (5° C./min), hold 5 min. […]

[2] = system: G. biloba seedlings, plants, and trees; details: cited from earlier work; for effect on diterpenoid content: cycloartenol synthase inhibitors (Huh, et al., 1993)
[3] = in vitro enzymatic assay of levopimaradiene synthase constructs expressed in E. coli BL21(DE3); type: biochemical, Escherichia coli; details: E. coli BL21(DE3), soluble lysate fraction, 20 μM GGDP, overnight at 32° C., GC and GC/MS
Method: The desired plasmids were prepared by ligating the mutated gene insert into the similarly digested vectors pET32c(+) (Novagen; Madison, Wis.) and pRS426GAL (Hua, 2000), a multiple copy yeast expression vector. These plasmids was expressed in E. coli BL21(DE3) (Novagen; Madison, Wis.). E. coli cells were grown in Luria-Bertani medium supplemented with 100 μg/mL ampicillin at 37° C. with shaking to OD600 ˜0.6. The following parameters were tested: isopropyl 1-thio-β-D-galactopyranoside (IPTG) concentration (50, 100, 250, 500, and 1000 μM); and temperature and time (20° C. for 2, 3, 4, 6, 21 hours, 22° C. for 6, 8, 16, 19, 22, 45 hours, and 30° C. for 3, 6 hours). The following assay conditions were tested to obtain maximum diterpene product yield: 30 mM HEPES (N-2-hydroxyethylpiperazine-N′-[…]), pH 6.9, 7.2, 7.6, 8.0; 30 mM Tris (tris(hydroxymethyl)aminomethane hydrochloride), pH 7.4, 7.8, 8.2; 1, 5, 10% glycerol; 1, 3, 5, 10, 20 mM DTT (dithiothreitol); 20 mM β-mercaptoethanol; 2, 5, 8% Triton X-100; 5% Tween 80; 0, 2, 7.5, 20, 50 mM MgCl2; 0, 30, 500, 1000 μM MnCl2; 2, 10, 13.3, 20, 40, 80, 200 μM GGDP; and 23° C. and 32° C. assay temperatures.
Optimal soluble protein production and diterpene yield were obtained with the following conditions. Cell cultures were induced with 1 mM IPTG at 20° C. with shaking for 6 hours and lysed by sonication in 30 mM HEPES, pH 7.2, 5 mM DTT, and 5% glycerol. The soluble fraction of the lysate (100 mg/mL) was incubated with 20 μM GGDP in 30 mM HEPES, pH 7.2, 5 mM DTT, 5% glycerol, 2 mM MgCl2, and 500 μM MnCl2 overnight at 32° C.
as §1
(§2) Gas chromatography spectra were obtained on a Hewlett Packard 6890 Series GC System equipped with an Rtx-5 capillary column (Restek, 30 m×0.25 mm i.d., 0.10 μm df). The following separation conditions and temperature program were employed: injector port 250° C., FID 250° C., split ratio 39:1, helium flow 20 cm/s (0.6 mL/min), 150° C. hold 5 min, increase to 250° C. (5° C./min), hold 5 min. GC/MS spectra were obtained on a Hewlett-Packard 5890A instrument with a 30-m DB-5 ms column (J&W Scientific Inc., 0.25 mm i.d., 0.10 μm df). The following separation conditions and temperature program were employed: injector port 280° C., transfer lines: 280° C., helium flow at 30 cm/s (1 mL/min) with splitless injection at 150° C. hold 3 min, increase to 250° C. (5° C./min), hold 5 min. Mass spectra (m/z 50 to 500) were obtained on a VG ZAB-HF reverse-geometry double-focusing instrument at 70 eV with an electron-impact ion source (200° C.). Accelerating voltage was set to 8 kV and the resolution was 1000 (10% valley).
The skilled artisan recognizes that lysis and assay conditions should be optimized. Examples of parameters that can be adjusted to optimize conditions include altering buffer, pH, reductant, reductant concentration, metal cofactors, cofactor concentrations, glycerol concentrations, substrate concentrations, and assay temperatures. […] Maximum soluble protein production and diterpene yield were obtained with the following conditions. Cell cultures were induced with 1 mM IPTG at 20° C. with shaking for 6 hours and lysed by sonication in 30 mM HEPES, pH 7.2, 5 mM DTT, and 5% glycerol. The soluble fraction of the lysate (100 mg/1 mL) was incubated with 20 μM GGDP in 30 mM HEPES, pH 7.2, 5 mM DTT, 5% glycerol, 2 mM MgCl2, and 500 μM MnCl2 overnight at 32° C. […]

[4] = in vitro assay of levopimaradiene synthase constructs expressed in wild-type S. cerevisiae JBY575; type: biochemical, Saccharomyces cerevisiae; details: wild-type S. cerevisiae JBY575, galactose 48 hours, lysate with GGDP
Method: Expression in S. cerevisiae JBY575, which represents wild-type yeast, was observed. JBY575 cells transformed with pRS426GAL inserted with the putative levopimaradiene synthase were grown in synthetic complete medium lacking uracil and supplemented with 2% glucose and 1.5% agar at 30° C. to saturation and induced with galactose for 48 hours. Cells were harvested, resuspended in lysis buffer, and mixed by vortexing over glass beads. The lysate was assayed with 60 μM GGDP in the presence and absence of 0.2% and 5% Triton X-100.
as §1, §2
The skilled artisan recognizes that lysis and assay conditions should be optimized. Examples of parameters that can be adjusted to optimize conditions include altering buffer, pH, reductant, reductant concentration, metal cofactors, cofactor concentrations, glycerol concentrations, substrate concentrations, and assay temperatures. […] Maximum soluble protein production and diterpene yield were obtained with the following conditions. Cell cultures were induced with 1 mM IPTG at 20° C. with shaking for 6 hours and lysed by sonication in 30 mM HEPES, pH 7.2, 5 mM DTT, and 5% glycerol. The soluble fraction of the lysate (100 mg/1 mL) was incubated with 20 μM GGDP in 30 mM HEPES, pH 7.2, 5 mM DTT, 5% glycerol, 2 mM MgCl2, and 500 μM MnCl2 overnight at 32° C. Yeast expression was induced with galactose at 30° C. for 48 hours and the cells were lysed and assayed according to the conditions noted.

[5] = system: EHY18 yeast cells; assay: in vivo expression of GbLS constructs in yeast strain EHY18 that accumulates GGDP, GC quantitation of products; type: cell-based; details: GC, GC/MS
Method: The yeast strain of the copending application employed was EHY18 (Hart, E., 2001) which was further transformed with multiple-copy yeast expression vectors comprising an isolated and purified nucleic acid sequence of GbLS or derivatives thereof, which are described herein under control of the GAL1 inducible promoter. Yeast cells were grown to saturation in 5 mL ScD-Leu-Ura at 30° C. Cells were harvested (1300×g, 2 min, 25° C.) and resuspended in 500 μL sterile Milli-Q H2O (2×). The washed cells were resuspended in 5 mL sterile Milli-Q H2O. An aliquot of the culture (5 μL) was added to a 25 mL Corex tube containing pre-prepared 2× resin and 5 mL ScG-Leu-Ura (4% galactose) and shaken at 30° C. for 6 days. Resin was collected by filtration through a Kontes chromatography column (1.7 cm diameter) and rinsed with dI H2O until eluent was clear. The resin was incubated in 2 mL ethanol for several minutes, eluted, and repeated 2×. The combined eluents were dissolved in approximately 3 mL dI H2O and extracted (3×) with 3 mL hexane. The combined extracts were concentrated under a stream of nitrogen. GC analysis (quantitation extrapolated from 0.2 mg/mL longifolene external standard) indicated the following product profile (obtained from triplicate measurement of three cultures): 0.61±0.20 mg/L levopimaradiene, 0.04±0.01 mg/L abietadiene, 0.15±0.05 mg/L abietatriene, 0.16±0.13 mg/L (+)-copalol, and 1.79±0.90 mg/L geranylgeraniol. GC/MS fragmentation confirmed the identity of each compound.
A large scale culture (1-L) was prepared by growing the yeast cells to saturation in 5 mL ScD-Leu-Ura at 30° C. Cells were harvested (1300×g, 2 min, 25° C.) and resuspended in 500 μL sterile Milli-Q H2O (2×). The washed cells were resuspended in 5 mL sterile Milli-Q H2O. An aliquot of the culture (1 mL) was added to a 2 L flask containing 1-L ScG-Leu-Ura (4% galactose) and 88.27 g resin in 120 mL Milli-Q H2O (pre-prepared). The resin was eluted with ethanol (3×100 mL with 20 min incubation periods), which was subsequently extracted (6×) with hexane. The combined extracts were dried over magnesium sulfate, filtered, and concentrated under reduced pressure. GC analysis (quantitation extrapolated from 0.2 mg/mL longifolene external standard) indicated the following product profile (obtained from triplicate measurement): 0.29±0.04 mg/L levopimaradiene, 0.04±0.02 mg/L abietadiene, 0.13±0.04 mg/L abietatriene, 0.11±0.02 mg/L (+)-copalol, and 0.56±0.03 mg/L geranylgeraniol. GC/MS analyses confirmed the production of the above noted diterpenes, which included hydrocarbons and an alcohol.
Further optimization studies employed the Ser61 construct. Factors influencing diterpene production included induction period and concentration of galactose and resin in the inducing medium.

CC(C)=CCC/C(C)=C/COP(=O)(O)OP(=O)(O)O [geranyl diphosphate]
terpene formation from alternative substrate [1]: did not produce any identifiable terpenes

COc1ccc(C(O)(c2cncnc2)C2CC2)cc1 (stereo not shown) [ancymidol]
effect on diterpenoid content [2]: Variable results

Cc1cc(OC(=O)N2CCCCC2)c(C(C)C)cc1[N+](C)(C)C.[Cl-] [AMO-1618]
effect on diterpenoid content [2]: Variable results

fluridone
increase in ginkgolides ([2]; application to G. biloba (Huh, et al., 1993)): up to 78%

B1: Phe^129: Ginkgo biloba levopimaradiene synthase truncated at Cys^127-Met^128, referred to as Phe^129; SEQ.ID.NO:39 (protein, listed as Ginkgo biloba)
chain: MFQSMGDGETNPSAYDTAWVARIPSIDGSGAPQFPQTLQWILNNQLPDGSWGEECIFLAYDRVLNTLACLLTLKIWNKGDIQVQKGVEFVRKHMEEMKDEADNHRPSGFEVVFPAMLDEAKSLGLDLPYHLPFISQIHQKRQKKLQKIPLNVLHNHQTALLYSLEGLQDVVDWQEITNLQSRDGSFLSSPASTACVFMHTQNKRCLHFLNFVLSKFGDYVPCHYPLDLFERLWAVDTVERLGIDRYFKKEIKESLDYVYRYWDAERGVGWARCNPIPDVDDTAMGLRILRLHGYNVSSDVLENFRDEKGDFFCFAGQTQIGVTDNLNLYRCSQVCFPGEKIMEEAKTFTTNHLQNALAKNNAFDKWAVKKDLPGEVEYAIKYPWHRSMPRLEARSYIEQFGSNDVWLGKTVYKMLYVSNEKYLELAKLDFNMVQALHQKETQHIVSWWRESGFNDLTFTRQRPVEMYFSVAVSMFEPEFAACRIAYAKTSCLAVILDDLYDTHGSLDDLKLFSEAVRRWDISVLDSVRDNQLKVCFLGLYNTVNGFGKDGLKEQGRDVLGYLRKVWEGLLASYTKEAEWSAAKYVPTFNEYVENAKVSIALATVVLNSIFFTGELLPDYILQQVDLRSKFLHLVSLTGRLINDTKTYQAERNRGELVSSVQCYMRENPECTEEEALSHVYGIIDNALKELNWELANPASNAPLCVRRLLFNTARVMQLFYMYRDGFGISDKEMKDHVSRTLFDPVA
diterpene product on bacterial expression [3]: failed to produce detectable levels of any diterpene; also recorded: complete loss of enzymatic activity
diterpene product on yeast expression [4]: failed to produce observable levels of any diterpene product; also recorded: failed to produce detectable levels of biosynthetic product
diterpene products on expression in EHY18 [5]: no diterpene alcohol or hydrocarbon formation
